Source: ChEMBL document CHEMBL1201862, “PubChem BioAssay data set” (2004)
Counter-ions that a name gives are not always drawn. The source made the active and inactive calls.

Experiments:
[1] = Dd2 parasite growth inhibition in erythrocytes – SYBR Green, dry powder samples, set 4, dose response (AID 1159572); format: functional, cell-based
[2] = viability loss in human Jurkat cells – cell-based, luminescence, cytotoxicity control for P. falciparum gametocyte viability project, dose response (AID 1117277); format: functional;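 also: potency reflects loss of cellular ATP meaning fewer viable cells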
[3] = Late stage results for the probe development effort to identify inhibitors of Plasmodium falciparum gametocytes: Luminescence-based cell-based high throughput dose response assay to identify inhibitors of viability of late stage Plasmodium falciparum gametocytes.; format: functional
[4] = viability inhibitors of stage V gametocytes – luminescence, dose response (AID 1117278); format: functional, cell-based;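 also: gametocytes exposed to compound for 24 hours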
[5] = biological target: Glutathione-S-transferase (Schistosoma japonicum, UniProt Q26513); assay: GST-antibody interaction or FRET quenching – biochemical, TR-FRET, artefact control for Vif-APOBEC3G degradation inhibitor project, dose response (AID 1117362); format: functional
Glutathione-S-transferase, sequence (Q26513 whole entry): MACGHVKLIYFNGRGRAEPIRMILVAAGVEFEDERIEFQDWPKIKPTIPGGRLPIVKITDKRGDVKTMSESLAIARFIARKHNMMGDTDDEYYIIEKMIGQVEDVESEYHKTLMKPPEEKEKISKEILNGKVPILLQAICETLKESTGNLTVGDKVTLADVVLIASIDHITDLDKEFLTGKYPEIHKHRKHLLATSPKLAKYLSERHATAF

[6] = SNU-C1 cell viability reduction, dose response, CellTiter-Glo luminescence (AID 1117323); format: functional, cell-based
[7] = CellTiter-Glo luminescence survival assay, SW480 colon tumor line, concentration-response curve, half-maximal inhibitory concentration (AID 1117338); format: functional
[8] = cytotoxicity toward HT-29 cells – cell-based, CellTiter-Glo luminescence, IC50, dose response (AID 1117330); format: functional
[9] = cytotoxicity toward HCT116 cells – cell-based, CellTiter-Glo luminescence, IC50, dose response (AID 1117332); format: functional; settings: HCT-116
[10] = HCT116 cell viability decrease, GSK3B pretreatment – CellTiter-Glo, IC50, dose response (AID 1117339); format: functional; settings: HCT-116
[11] = cytotoxicity toward Colo320 cells – cell-based, CellTiter-Glo luminescence, IC50, dose response (AID 1117334); format: functional; settings: COLO 320
[12] = Reduced DLD-1 viability, concentration-response, CellTiter-Glo luminescence (AID 1117352); format: functional
[13] = RKO cell viability reduction, dose response, CellTiter-Glo luminescence (AID 1117322); format: functional
[14] = biological target: T1, Histone-lysine N-methyltransferase NSD2 (Homo sapiens, UniProt O96028); format: biochemical
T1 sequence (O96028 whole entry): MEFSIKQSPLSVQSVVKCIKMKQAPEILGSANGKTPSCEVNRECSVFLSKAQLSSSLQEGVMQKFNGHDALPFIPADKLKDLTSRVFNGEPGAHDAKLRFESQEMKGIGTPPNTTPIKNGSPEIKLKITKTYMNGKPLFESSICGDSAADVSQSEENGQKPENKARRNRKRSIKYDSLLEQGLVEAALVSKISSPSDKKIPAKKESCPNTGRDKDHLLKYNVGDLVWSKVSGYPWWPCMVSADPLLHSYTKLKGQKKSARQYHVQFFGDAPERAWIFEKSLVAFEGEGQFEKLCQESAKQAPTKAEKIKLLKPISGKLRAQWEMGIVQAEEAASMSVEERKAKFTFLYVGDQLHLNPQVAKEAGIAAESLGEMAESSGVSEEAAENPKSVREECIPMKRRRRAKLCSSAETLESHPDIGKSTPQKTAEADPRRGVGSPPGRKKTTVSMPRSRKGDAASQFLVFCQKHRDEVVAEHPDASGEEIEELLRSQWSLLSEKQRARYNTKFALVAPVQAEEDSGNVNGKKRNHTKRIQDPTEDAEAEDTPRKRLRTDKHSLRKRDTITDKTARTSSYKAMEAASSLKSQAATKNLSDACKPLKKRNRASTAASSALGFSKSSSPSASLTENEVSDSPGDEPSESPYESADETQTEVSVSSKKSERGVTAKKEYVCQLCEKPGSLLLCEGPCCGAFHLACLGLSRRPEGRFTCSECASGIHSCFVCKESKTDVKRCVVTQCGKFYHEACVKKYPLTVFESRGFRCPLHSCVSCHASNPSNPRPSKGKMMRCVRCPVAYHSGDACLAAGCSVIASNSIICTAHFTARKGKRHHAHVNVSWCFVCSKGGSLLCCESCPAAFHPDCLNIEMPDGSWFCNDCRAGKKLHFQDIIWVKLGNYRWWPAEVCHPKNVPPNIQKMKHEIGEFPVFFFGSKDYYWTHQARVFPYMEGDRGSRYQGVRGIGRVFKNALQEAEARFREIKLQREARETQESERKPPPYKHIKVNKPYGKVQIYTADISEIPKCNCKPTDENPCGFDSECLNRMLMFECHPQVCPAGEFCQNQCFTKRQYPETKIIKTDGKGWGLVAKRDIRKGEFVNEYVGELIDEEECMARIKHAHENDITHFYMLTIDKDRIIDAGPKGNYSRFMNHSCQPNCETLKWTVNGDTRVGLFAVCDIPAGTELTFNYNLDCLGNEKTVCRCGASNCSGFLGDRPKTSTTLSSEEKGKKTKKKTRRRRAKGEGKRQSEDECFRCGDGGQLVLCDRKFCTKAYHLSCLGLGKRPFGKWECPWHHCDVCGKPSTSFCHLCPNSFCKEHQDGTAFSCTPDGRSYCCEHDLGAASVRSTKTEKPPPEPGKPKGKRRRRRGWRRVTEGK

[15] = biological target: E3 ubiquitin-protein ligase UHRF1 (Homo sapiens, UniProt Q96T88); assay: Counterscreen for inhibitors of 5-meCpG-binding domain protein 2 (MBD2): TRFRET-based biochemical high throughput dose response assay to identify inhibitors of binding of ubiquitin-like with PHD and ring finger domains 1 (UHRF1) to methylated oligonucleotide.
E3 ubiquitin-protein ligase UHRF1, sequence (Q96T88 whole entry, the tested form may be a part): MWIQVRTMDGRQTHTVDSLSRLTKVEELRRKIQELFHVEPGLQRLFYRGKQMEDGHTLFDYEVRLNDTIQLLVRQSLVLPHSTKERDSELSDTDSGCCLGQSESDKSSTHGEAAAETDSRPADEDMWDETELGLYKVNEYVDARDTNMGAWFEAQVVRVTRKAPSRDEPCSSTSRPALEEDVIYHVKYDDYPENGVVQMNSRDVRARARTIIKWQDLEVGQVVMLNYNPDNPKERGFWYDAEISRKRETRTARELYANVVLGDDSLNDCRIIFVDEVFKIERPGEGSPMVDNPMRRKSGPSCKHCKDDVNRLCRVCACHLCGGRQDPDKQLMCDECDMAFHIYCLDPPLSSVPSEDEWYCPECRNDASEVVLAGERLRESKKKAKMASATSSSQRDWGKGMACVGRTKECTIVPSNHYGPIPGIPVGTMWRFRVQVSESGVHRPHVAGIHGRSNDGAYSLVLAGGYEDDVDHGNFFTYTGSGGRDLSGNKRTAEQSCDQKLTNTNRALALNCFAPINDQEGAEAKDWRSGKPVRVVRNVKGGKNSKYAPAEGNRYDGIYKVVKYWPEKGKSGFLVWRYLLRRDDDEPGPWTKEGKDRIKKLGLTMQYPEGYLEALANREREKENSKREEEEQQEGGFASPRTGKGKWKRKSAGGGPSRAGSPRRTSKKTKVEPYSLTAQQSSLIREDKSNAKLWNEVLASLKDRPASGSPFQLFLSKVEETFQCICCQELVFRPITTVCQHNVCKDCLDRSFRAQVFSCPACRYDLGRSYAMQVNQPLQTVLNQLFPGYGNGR

[16] = biological target: T2, Small ubiquitin-related modifier 1 (Homo sapiens, UniProt P63165); assay: SUMO1 protein-protein binding blockers, potency – biochemical, FRET, dose response (AID 624383); format: functional; settings: read-out: IC50_Mean
T2 sequence (P63165 whole entry): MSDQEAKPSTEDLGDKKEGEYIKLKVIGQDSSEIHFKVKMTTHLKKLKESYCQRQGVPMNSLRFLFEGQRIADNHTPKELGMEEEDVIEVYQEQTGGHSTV

Caspase-6 = Caspase-6 (Homo sapiens, UniProt P55212); assay: inhibition of CASP6 peptide cleavage – biochemical, VEID-R110 fluorescence, cherry-pick, dose response (AID 720632)
Caspase-6, sequence (P55212 24-179 limits assumed): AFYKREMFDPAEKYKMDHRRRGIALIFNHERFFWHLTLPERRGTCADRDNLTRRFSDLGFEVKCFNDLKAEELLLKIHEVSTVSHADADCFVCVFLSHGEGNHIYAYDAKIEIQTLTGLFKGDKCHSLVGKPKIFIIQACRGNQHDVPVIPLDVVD
Caspase-6, sequence (P55212 194-293 limits assumed): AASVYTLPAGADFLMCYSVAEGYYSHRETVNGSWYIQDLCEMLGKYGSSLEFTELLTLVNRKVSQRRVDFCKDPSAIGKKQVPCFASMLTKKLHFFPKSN

[17] = biological target: T3, Dual specificity protein phosphatase 6 (Rattus norvegicus, UniProt Q64346); assay: inhibition of rat DUSP6 enzyme activity – biochemical, in vitro, primary screen (AID 425)
T3 sequence (Q64346 whole entry): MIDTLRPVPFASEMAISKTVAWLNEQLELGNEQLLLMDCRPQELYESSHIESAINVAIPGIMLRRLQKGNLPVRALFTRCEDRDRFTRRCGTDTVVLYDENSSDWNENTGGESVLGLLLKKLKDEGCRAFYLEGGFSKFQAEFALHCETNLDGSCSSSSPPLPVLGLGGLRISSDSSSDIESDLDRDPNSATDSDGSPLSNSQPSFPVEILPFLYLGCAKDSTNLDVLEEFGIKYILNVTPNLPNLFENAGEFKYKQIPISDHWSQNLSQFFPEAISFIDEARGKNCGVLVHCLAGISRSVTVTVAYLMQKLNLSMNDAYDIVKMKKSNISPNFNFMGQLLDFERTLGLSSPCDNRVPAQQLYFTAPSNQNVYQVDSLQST

[18] = biological target: T2, Small ubiquitin-related modifier 1; assay: SUMO1 protein interaction blockers, potency – biochemical, fluorescence polarization, uHTS hits, dose response (AID 624382); format: functional; settings: read-out: IC50_Mean
[19] = IC50 of insulin release inhibition, rat insulinoma INS-1E line, 5 mM glucose, cell-based (AID 1117331); format: functional
Cytochrome P450 1A2 = biological target: T4, Cytochrome P450 1A2 (Homo sapiens, UniProt P05177);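 also: PubChem cytochrome P450 panel assay, CYP1A2 panel member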
T4 sequence (P05177 whole entry): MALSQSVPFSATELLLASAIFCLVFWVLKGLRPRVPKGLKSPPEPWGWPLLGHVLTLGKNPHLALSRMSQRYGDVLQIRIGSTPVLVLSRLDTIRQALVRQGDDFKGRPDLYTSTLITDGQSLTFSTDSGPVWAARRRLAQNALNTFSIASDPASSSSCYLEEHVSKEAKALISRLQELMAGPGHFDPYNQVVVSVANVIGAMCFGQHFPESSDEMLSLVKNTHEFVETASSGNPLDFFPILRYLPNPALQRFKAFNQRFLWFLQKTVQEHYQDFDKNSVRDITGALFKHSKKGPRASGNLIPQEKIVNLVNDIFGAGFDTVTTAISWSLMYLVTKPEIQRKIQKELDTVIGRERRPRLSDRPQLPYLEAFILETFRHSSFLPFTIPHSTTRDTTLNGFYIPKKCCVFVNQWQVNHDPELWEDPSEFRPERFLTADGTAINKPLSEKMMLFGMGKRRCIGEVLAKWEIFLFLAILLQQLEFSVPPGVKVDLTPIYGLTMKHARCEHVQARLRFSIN

[20] = biological target: Sphingosine 1-phosphate receptor 2 (Homo sapiens, UniProt O95136); assay: Dose Response Cell Based Assay for Agonists of the S1P2 Receptor. [Related pubchem assays: 729, 736, 843 ]; format: functional
Sphingosine 1-phosphate receptor 2, sequence (O95136 whole entry): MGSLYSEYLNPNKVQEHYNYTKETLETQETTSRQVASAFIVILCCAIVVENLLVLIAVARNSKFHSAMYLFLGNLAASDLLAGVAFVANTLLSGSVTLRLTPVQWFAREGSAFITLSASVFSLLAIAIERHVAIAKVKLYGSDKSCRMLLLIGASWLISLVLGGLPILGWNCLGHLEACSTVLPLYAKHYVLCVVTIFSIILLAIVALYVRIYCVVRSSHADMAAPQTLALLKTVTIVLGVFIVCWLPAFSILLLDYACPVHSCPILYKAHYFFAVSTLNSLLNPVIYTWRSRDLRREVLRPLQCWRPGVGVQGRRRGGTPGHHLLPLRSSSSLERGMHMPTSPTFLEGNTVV

Cytochrome P450 2C19 = Cytochrome P450 2C19 (Homo sapiens, UniProt P33261); assay: Cytochrome panel assay with activity outcomes. Panel member name: p450-cyp2c19 Compounds with AC50 equal or less than 10 uM are considered active; format: functional; settings: read-out: AC50
Cytochrome P450 2C19, sequence (P33261 whole entry): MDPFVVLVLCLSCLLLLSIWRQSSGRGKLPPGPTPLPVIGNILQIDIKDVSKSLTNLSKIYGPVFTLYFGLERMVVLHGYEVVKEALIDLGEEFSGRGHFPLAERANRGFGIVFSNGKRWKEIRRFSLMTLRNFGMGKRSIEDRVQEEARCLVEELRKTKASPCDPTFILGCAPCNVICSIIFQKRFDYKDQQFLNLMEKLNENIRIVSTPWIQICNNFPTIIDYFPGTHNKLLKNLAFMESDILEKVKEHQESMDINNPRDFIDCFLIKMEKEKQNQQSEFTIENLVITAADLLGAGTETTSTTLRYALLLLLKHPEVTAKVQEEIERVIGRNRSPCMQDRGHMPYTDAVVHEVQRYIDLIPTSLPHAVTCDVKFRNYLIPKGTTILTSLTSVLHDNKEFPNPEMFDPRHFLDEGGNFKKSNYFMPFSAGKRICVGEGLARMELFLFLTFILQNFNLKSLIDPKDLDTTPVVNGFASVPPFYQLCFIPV

Heat shock protein HSP90 = Heat shock protein HSP90 (Homo sapiens, UniProt P07900+P08238); assay: Hsp90 blockade concentration-response – dose response (AID 712); format: functional
[21] = biological target: RNA-editing ligase 1, mitochondrial (Trypanosoma brucei brucei, UniProt P86926); assay: inhibition of trypanosome RNA editing ligase – biochemical, fluorescence, Trypanosoma brucei, dose response (AID 1117295); format: functional
RNA-editing ligase 1, mitochondrial, sequence (P86926 whole entry): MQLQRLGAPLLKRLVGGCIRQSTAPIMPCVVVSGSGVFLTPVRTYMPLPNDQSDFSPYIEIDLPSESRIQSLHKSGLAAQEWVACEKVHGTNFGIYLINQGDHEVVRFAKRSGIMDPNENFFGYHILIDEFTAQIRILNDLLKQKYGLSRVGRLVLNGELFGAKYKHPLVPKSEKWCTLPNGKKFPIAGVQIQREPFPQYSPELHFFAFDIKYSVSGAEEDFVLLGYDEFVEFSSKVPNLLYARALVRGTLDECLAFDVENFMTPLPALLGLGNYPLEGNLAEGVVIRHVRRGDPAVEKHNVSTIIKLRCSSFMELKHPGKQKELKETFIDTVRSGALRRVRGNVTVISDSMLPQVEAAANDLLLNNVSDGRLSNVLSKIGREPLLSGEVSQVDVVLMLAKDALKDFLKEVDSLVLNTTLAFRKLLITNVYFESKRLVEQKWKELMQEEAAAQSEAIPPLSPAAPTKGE

[22] = biological target: T5, Aryl hydrocarbon receptor (Homo sapiens, UniProt P35869); settings: Potency;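 also: confirmatory quantitative high-throughput screen measuring activation of the AhR signaling pathway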
T5 sequence (P35869 whole entry): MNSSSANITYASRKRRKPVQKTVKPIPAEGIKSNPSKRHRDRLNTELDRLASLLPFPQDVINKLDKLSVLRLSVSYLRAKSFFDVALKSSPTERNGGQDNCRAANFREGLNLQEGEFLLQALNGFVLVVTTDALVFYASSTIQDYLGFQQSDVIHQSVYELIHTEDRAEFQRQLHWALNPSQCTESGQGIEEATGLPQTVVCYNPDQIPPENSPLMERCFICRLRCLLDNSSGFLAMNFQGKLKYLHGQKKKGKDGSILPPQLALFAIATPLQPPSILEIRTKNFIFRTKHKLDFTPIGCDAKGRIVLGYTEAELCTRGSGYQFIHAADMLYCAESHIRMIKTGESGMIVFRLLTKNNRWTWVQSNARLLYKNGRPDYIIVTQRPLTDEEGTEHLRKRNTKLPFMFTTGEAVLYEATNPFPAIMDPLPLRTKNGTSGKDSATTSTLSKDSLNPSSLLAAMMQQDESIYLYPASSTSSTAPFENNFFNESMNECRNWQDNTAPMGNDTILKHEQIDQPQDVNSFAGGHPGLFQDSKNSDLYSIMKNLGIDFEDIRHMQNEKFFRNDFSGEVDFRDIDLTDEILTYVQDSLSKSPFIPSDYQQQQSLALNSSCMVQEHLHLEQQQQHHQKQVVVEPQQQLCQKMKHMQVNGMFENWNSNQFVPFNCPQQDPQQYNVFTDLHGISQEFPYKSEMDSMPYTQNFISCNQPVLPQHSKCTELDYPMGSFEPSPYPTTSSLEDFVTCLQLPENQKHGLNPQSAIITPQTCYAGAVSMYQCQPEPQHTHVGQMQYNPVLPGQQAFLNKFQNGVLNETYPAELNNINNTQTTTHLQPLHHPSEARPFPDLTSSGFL

[23] = Potency on glucagon-like peptide 1 release, dose-response in NCI-H716 cell line, half maximal inhibitory concentration (AID 1117344); format: functional, cell-based
[24] = glucagon-like peptide-1 release potency in STC-1, concentration-response, half-maximal inhibitory concentration in the STC-1 line (AID 1117345); format: functional, cell-based
[25] = biological target: Metabotropic glutamate receptor 7 (Homo sapiens, UniProt Q14831); assay: potentiation of glutamate EC20 at mGlu7 – cell-based, calcium mobilization, Galpha15, dose response (AID 743384); format: functional
Metabotropic glutamate receptor 7, sequence (Q14831 whole entry): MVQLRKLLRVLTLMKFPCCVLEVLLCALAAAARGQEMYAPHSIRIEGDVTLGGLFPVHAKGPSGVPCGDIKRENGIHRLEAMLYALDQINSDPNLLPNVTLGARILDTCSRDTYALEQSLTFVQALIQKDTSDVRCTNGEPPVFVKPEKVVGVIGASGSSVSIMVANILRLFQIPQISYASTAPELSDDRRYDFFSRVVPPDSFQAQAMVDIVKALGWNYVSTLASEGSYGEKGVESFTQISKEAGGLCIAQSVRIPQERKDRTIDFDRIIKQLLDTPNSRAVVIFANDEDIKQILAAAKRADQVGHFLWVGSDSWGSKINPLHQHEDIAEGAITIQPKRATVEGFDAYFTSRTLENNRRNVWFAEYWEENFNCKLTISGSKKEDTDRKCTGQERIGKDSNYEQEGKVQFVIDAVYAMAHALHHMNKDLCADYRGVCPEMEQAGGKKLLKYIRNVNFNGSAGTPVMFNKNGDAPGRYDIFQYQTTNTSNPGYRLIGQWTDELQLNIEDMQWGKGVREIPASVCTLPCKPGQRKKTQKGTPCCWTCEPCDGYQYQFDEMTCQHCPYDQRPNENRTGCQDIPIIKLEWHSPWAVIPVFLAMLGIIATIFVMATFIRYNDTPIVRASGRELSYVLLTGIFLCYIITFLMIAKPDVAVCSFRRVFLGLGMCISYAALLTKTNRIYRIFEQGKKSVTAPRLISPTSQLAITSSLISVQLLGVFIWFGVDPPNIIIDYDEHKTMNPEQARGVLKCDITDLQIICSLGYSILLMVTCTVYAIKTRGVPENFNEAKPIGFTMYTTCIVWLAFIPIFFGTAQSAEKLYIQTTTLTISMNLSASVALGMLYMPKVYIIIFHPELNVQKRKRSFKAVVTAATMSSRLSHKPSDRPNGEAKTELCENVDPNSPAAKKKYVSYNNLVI

COc1ccc2c3c([nH]c2c1)[C@H](CO)N(C(C)=O)CC31CCN(Cc2ccccc2Cl)CC1
AC50 [1]: 17.1 µM (active)

O=C(Nc1nccs1)c1cn(-c2ccccc2)nc1-c1ccncc1
IC50 [2]: > 83.3 µM (inactive) | IC50 [3]: > 37.2 µM (inactive) | IC50 [4]: 9.12 µM (active)

Cc1nc2c(Cl)cccc2c(O)c1CN1CCCC1
IC50 [5]: > 100 µM (active)

O=C(Nc1ccc(Cl)cc1)Nc1ccc(Cl)c(C(F)(F)F)c1 [CLOFLUCARBAN]
IC50 [6]: 0.009 µM (active) | IC50 [7]: 0.009 µM (active) | IC50 [8]: 0.001 µM (active) | IC50 [9]: 0.003 µM (active) | IC50 [10]: 0.003 µM (active) | IC50 [11]: 0.003 µM (active) | IC50 [12]: 0.027 µM (active) | IC50 [13]: 0.003 µM (active)

CCCCn1c(NC(=O)c2ccccc2)c(C#N)c2nc3ccccc3nc21
AC50 [14]: 2.61 µM (active) | IC50 [15]: > 43.8 µM (inactive) | IC50 [16]: 17.4 µM (active) | AC50 (Caspase-6): 47.4 µM (active) | IC50 [17]: > 100 µM (not active) | IC50 [18]: > 66.6 µM (inactive)

CCN(CC)C(C)CN1c2ccccc2Sc2ccccc21 (stereo not given) [ETHOPROPAZINE HYDROCHLORIDE]
IC50 [19]: > 33.3 µM (inactive)

O=c1c(-c2nc3ccccc3s2)cccn1Cc1ccc(Cl)cc1
AC50 (Cytochrome P450 1A2): 1.41 µM (inconclusive) | EC50 [20]: 2.89 µM (active) | AC50 (Cytochrome P450 2C19): 1.12 µM (inconclusive)

CCn1nc(-c2cccs2)nc2c(=O)n(C)c(=O)nc1-2
IC50 (Heat shock protein HSP90): 5 µM | IC50 [17]: 1.98 µM (active)

COC(=O)C1=C(C)N(Cc2ccccc2C(F)(F)F)C(NCc2ccc3c(c2)OCO3)=NC1c1cccc(F)c1 (stereo not given)
IC50 [21]: > 96.6 µM (inactive)

CC(C)(Oc1ccc(C2CC2(Cl)Cl)cc1)C(=O)O (stereo not given) [CIPROFIBRATE]
AC50 [22]: 70.8 µM (inconclusive) | IC50 [23]: > 40 µM (inactive) | IC50 [24]: > 40 µM (inactive)

COC(=O)c1ccc(-n2c(C)cc(C(=O)COc3ccc(OC(C)=O)cc3)c2C)cc1
EC50 [25]: 10 µM (active)
